From patent US8212038B2, “Methods and compositions for controlling ectoparasites” (HatchTech Pty Ltd., priority 2003, dated 2012)
“Also recorded” adds a separate entry of the source. Square brackets hold non-standard residues; d marks the D form. Peptide text beside a SMILES is read from it. * marks the point of attachment. Sta = CC(C)C[C@H](N)[C@@H](O)CC(=O)O; Isovaleryl = CC(C)CC(=O)*

Legend:
[1] = test system: lice eggs; experiment: Lice egg-hatching bioassay, eggs treated once 5 days post laying; format: in vivo, Pediculus humanus humanus
Method: To evaluate the potential effects of protease inhibitors on lice egg hatching it was necessary to develop a reliable in vitro bioassay. Male and female clothing lice were fed on a rabbit as previously described. […] During this period the female lice laid their eggs and attached them to the woven cloth. All lice would then be removed and the eggs permitted to incubate for the following 5 days. […] The eggs would then progress through to their final stages of development and hatch. In untreated control eggs a reliable average percentage hatch of between 85-95 percent was obtained using the in vitro egg hatch assay. […] Lice eggs were laid onto cloth as described above. […] Protease inhibitor solutions were typically prepared as stock solutions and added fresh at the appropriate concentration. Specifically stock solutions were prepared as follows: 1,10-phenanthroline (200 mM in methanol) and Bestatin (5 mg/ml in methanol). In addition, the equivalent levels of the solvent were added to the non-inhibitor containing controls eggs to test for any buffer alone effects. Percentage hatch inhibition was calculated as the percentage reduction in egg hatch compared to the untreated control.

[2] = test system: lice eggs; experiment: Time course in vitro lice egg hatching assay; format: in vivo, Pediculus humanus humanus; conditions: 5 mM; time course
[3] = test system: proteases in the egg shell washings (ESW) of lice eggs; experiment: Gelatine substrate SDS-PAGE of egg shell washings treated with protease inhibitors; format: biochemical, Pediculus humanus humanus; conditions: 37° C., 3 hrs
Method: Within 12 hours of hatching 50 body lice eggs (Pediculus humanus humanus) were removed from the hair and placed in a 1 ml eppendorf tube. 20 μL of distilled water was added to the unhatched eggs and the preparation incubated for 30 minutes at 32° C. The 20 μL was recovered, freeze dried and stored at −70° C. A number of other samples were also collected as described. Hair samples from which unhatched lice eggs had been removed were also collected and incubated as described above. In addition, a sample of unhatched eggs and a sample of hair from which lice eggs had been removed were collected 7 days post laying (within 24 hrs of egg hatching). Both samples were washed in 10 mls of a 1% solution of sodium hypochlorite for 1 minute followed by a 5×1 minute washes in 25 mls in distilled water to remove the hypochlorite. These samples were then incubated in […] of distilled water as described above. In addition, a group of 25 lice eggs that were within 24 hours of hatching, were pretreated with 1% sodium hypochlorite, washed as described above and left to hatch. Within 1-2 hours after hatching the empty egg shells were incubated in 20 μL of distilled water as described above, the washings collected from the hatched egg shells and stored at −70° C. All of the extract samples were then freeze-dried overnight. The freeze-dried samples were then resuspended in […] of non-reducing SDS sample buffer, centrifuged at 10,000 g for 2 minutes and the entire 15 μL loaded on to 10% gelatine substrate SDS-PAGE gels. Gels were run at 4° C. for 10 minutes at 10 mA followed by a further 25 minutes at 15 mA per gel. They were then incubated for 2×20 minutes in a 2.5% Triton-X 100 solution followed by a three hour incubation in 0.1M Tris/HCl containing 1 mM CaCl2 pH 8.0. Activity was detected as clear areas on the gel the result of protease activity degrading the gelatine within the gel.
10% SDS-PAGE gelatine substrate gels were loaded with freeze dried egg shell washings from 100 lice eggs that had been resuspended in 50 μl of non-reducing sample buffer with samples run at 10 μl per lane. Gels were run at 4° C. for 10 minutes at 10 mA per gel followed by a further 25 minutes at 15 mA per gel. Gels were then cut into strips and each strip incubated for 2×20 minutes in a 2.5% Triton-X 100 solution containing a specific inhibitor. The inhibitors used were the serine protease inhibitor PMSF (5 mM), the metalloprotease inhibitor 1,10-phenanthroline (10 mM), the aspartic protease Pepstatin (5 μM) and the cysteine inhibitor E-64 (10 μM). The gel strips were then incubated in 0.1M Tris/HCl containing 1 mM CaCl2 pH 8 containing the different protease inhibitors for 3 hrs at 37° C., before being stained in Coomassie blue and destained as previously described.

CC(C)C[C@H](NC(=O)[C@@H](O)[C@H](N)Cc1ccccc1)C(=O)O [Bestatin, reference compound]
inhibition of egg hatching in lice (in words) ([1]; 5 mM, eggs treated 5 days post laying): significantly inhibit lice egg hatching | inhibition of egg hatching in lice (in words) ([1]; added within 24 hours of hatching, data not shown): variable inhibition of egg hatching | inhibition of lice egg hatching (in words) [2]: significant inhibition, but only when applied approximately 24 hrs prior to egg hatch; also recorded: partially inhibit lice egg hatching

CC(C)C[C@H](NC(=O)[C@H]1O[C@@H]1C(=O)O)C(=O)NCCCCN=C(N)N [E64]
protease activity of ESW on gelatine SDS-PAGE after inhibitor treatment ([3]; 10 μM inhibitor): No reduction in protease activity

O=S(=O)(F)Cc1ccccc1 [PMSF]
protease activity of ESW on gelatine SDS-PAGE after inhibitor treatment ([3]; 5 mM inhibitor): No reduction in protease activity

CC(C)CC(=O)N[C@H](C(=O)N[C@H](C(=O)N[C@@H](CC(C)C)[C@@H](O)CC(=O)N[C@@H](C)C(=O)N[C@@H](CC(C)C)[C@@H](O)CC(=O)O)C(C)C)C(C)C [pepstatin] (Isovaleryl-VV[Sta]A[Sta]-OH)
protease activity of ESW on gelatine SDS-PAGE after inhibitor treatment ([3]; 5 μM inhibitor, data not shown): did not show any reduction in protease activity; also recorded: No reduction in protease activity
